Source: ChEMBL document CHEMBL1833905, “Design, synthesis and primary activity assay of tripeptidomimetics as histone deacetylase inhibitors with linear linker and branched cap group” (Eur J Med Chem, 2011)

Columns and labels:
Histone deacetylase 8 = target: T1, Histone deacetylase 8 (Homo sapiens, UniProt Q9BY41); assay: Inhibition of human HDAC8 expressed in Escherichia coli using Boc-Lys (acetyl)-AMC as substrate treated for 5 mins before substrate addition measured after 30 mins by fluorescence assay
T1 sequence (Q9BY41 whole entry): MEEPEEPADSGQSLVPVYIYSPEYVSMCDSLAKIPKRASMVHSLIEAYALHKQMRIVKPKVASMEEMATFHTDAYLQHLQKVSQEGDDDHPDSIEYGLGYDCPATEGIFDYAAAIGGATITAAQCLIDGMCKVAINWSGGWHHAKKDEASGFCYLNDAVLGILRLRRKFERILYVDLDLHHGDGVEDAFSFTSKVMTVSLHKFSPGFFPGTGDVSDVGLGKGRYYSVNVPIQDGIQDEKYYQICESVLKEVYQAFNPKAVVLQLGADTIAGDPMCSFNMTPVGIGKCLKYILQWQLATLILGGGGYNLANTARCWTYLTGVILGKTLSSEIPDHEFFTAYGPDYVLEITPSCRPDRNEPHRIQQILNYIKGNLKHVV

PC-3 = assay: cells; conditions: Homo sapiens, PC-3, 48 h
MDA-MB-231 = assay: Antiproliferative activity against human MDA-MB-231 cells after 48 hrs by MTT assay; assay type: functional, cell-based; conditions: MDA-MB-231, 48 h
MCF7 = assay: Antiproliferative activity against human MCF7 cells after 48 hrs by MTT assay; assay type: functional, cell-based; conditions: MCF7, 48 h
Histone deacetylase 1 = Histone deacetylase 1 (Homo sapiens, UniProt Q13547); assay: Inhibition of human HDAC1 expressed in Escherichia coli using fluorogenic substrate treated for 5 mins before substrate addition measured after 30 mins by fluorescence assay
Chain of Histone deacetylase 1 (Q13547 whole entry): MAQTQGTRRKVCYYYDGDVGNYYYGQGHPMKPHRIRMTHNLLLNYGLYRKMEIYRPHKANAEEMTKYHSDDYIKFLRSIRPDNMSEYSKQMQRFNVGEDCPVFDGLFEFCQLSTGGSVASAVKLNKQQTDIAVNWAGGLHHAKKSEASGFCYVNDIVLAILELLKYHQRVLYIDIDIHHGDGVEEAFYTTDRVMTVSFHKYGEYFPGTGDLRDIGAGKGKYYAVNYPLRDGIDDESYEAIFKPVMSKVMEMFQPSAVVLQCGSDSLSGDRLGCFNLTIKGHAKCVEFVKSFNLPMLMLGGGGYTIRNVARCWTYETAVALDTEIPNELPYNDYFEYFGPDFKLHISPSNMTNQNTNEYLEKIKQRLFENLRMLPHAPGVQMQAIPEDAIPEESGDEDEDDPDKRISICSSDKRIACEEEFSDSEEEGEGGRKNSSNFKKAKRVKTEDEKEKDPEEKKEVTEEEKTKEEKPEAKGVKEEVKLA

In the case of `CC(C)(C)OC(=O)NCCCC(=O)N1CC2(C[C@H]1C(=O)NCCCCCC(=O)NO)SCCS2`, the IC50 (Histone deacetylase 8) is reported as 960 nM.

`O=C(CCCCCNC(=O)[C@@H]1CC2(CN1)SCCS2)NO` showed an IC50 (Histone deacetylase 8) of 2590 nM.

`NCCC(=O)N1CC2(C[C@H]1C(=O)NCCCCCC(=O)NO)SCCS2` gave an IC50 (Histone deacetylase 8) of 1930 nM.

Compound `CC(C)C[C@H](NC(=O)OC(C)(C)C)C(=O)N1CC2(C[C@H]1C(=O)NCCCCCC(=O)NO)SCCS2` has an IC50 (PC-3) of 4300 nM, an IC50 (MDA-MB-231) of 3500 nM and an IC50 (MCF7) of 3510 nM. It also gave an IC50 (Histone deacetylase 1) of 680 nM.

`CC(C)(C)OC(=O)N[C@@H](Cc1ccccc1)C(=O)N1CC2(C[C@H]1C(=O)NCCCCCC(=O)NO)SCCS2` was tested, and the IC50 (PC-3) was 12700 nM, the IC50 (MDA-MB-231) was 2790 nM and the IC50 (MCF7) was 7780 nM. For the same compound, the IC50 (Histone deacetylase 1) was 980 nM and the IC50 (Histone deacetylase 8) was 35 nM.

For `N[C@@H](Cc1ccccc1)C(=O)N1CC2(C[C@H]1C(=O)NCCCCCC(=O)NO)SCCS2`, the IC50 (Histone deacetylase 8) was 840 nM.

In the case of `CC(C)(C)OC(=O)N[C@@H](Cc1ccc(O)cc1)C(=O)N1CC2(C[C@H]1C(=O)NCCCCCC(=O)NO)SCCS2`, the IC50 (PC-3) is reported as 24700 nM, the IC50 (MDA-MB-231) is reported as 30500 nM and the IC50 (MCF7) is reported as 21600 nM. For the same compound, the IC50 (Histone deacetylase 1) was 450 nM and the IC50 (Histone deacetylase 8) was 21 nM.

For `N[C@@H](Cc1ccc(O)cc1)C(=O)N1CC2(C[C@H]1C(=O)NCCCCCC(=O)NO)SCCS2`, the IC50 (PC-3) was over 100000 nM, the IC50 (MDA-MB-231) was over 100000 nM and the IC50 (MCF7) was over 100000 nM. It also gave an IC50 (Histone deacetylase 1) of 450 nM and an IC50 (Histone deacetylase 8) of 490 nM.

`CC(C)(C)OC(=O)N[C@@H](Cc1c[nH]c2ccccc12)C(=O)N1CC2(C[C@H]1C(=O)NCCCCCC(=O)NO)SCCS2` was tested, and the IC50 (PC-3) was 13700 nM, the IC50 (MDA-MB-231) was 5830 nM and the IC50 (MCF7) was 9160 nM. It also gave an IC50 (Histone deacetylase 1) of 750 nM and an IC50 (Histone deacetylase 8) of 140 nM.

In the case of `N[C@@H](Cc1c[nH]c2ccccc12)C(=O)N1CC2(C[C@H]1C(=O)NCCCCCC(=O)NO)SCCS2`, the IC50 (Histone deacetylase 8) is reported as 690 nM.

For `CC(C)(C)OC(=O)NCCCC[C@H](NC(=O)OC(C)(C)C)C(=O)N1CC2(C[C@H]1C(=O)NCCCCCC(=O)NO)SCCS2`, the IC50 (PC-3) was 34600 nM, the IC50 (MDA-MB-231) was 12800 nM and the IC50 (MCF7) was 42500 nM. The IC50 (Histone deacetylase 1) was 980 nM and the IC50 (Histone deacetylase 8) was 350 nM.

Work on `NCCCC[C@H](N)C(=O)N1CC2(C[C@H]1C(=O)NCCCCCC(=O)NO)SCCS2` yielded an IC50 (Histone deacetylase 8) of 4770 nM.

Work on `O=C(CCCCCCC(=O)Nc1ccccc1)NO` [VORINOSTAT] yielded an IC50 (PC-3) of 1980 nM.
